Values of other authors as cited in article PMC4394704, “Structures and functions of insect arylalkylamine N-acetyltransferase (iaaNAT); a key enzyme for physiological and behavioral switch in arthropods” (Frontiers in Physiology, 2015).
Like-named read-outs stand apart in the source and are kept apart here.

Columns and labels:
bNAT (basic aaNAT, NATb) = test system: T1, bNAT (basic aaNAT, NATb); assay: N-acetyltransferase activity of purified fraction; assay type: biochemical, Periplaneta americana; conditions: co-substrate acetyl CoA; pH not given
T1 construct: native, purified from midgut; 28 kDa by SDS-PAGE; pH optimum 9-10
Excerpt: N-acetyltransferase activity of purified fraction on bNAT (basic aaNAT, NATb)

[1] = test system: T2, aNAT (acidic aaNAT, NATa); assay: N-acetyltransferase activity of purified fraction; assay type: biochemical, Periplaneta americana; conditions: co-substrate acetyl CoA; pH not given
T2 construct: native, purified from testicular accessory gland; 28 kDa by SDS-PAGE; pH optimum 5-6
Excerpt: N-acetyltransferase activity of purified fraction on aNAT (acidic aaNAT, NATa)

[2] = target: T3, apaaNAT (aaNAT from A. pernyi) (Antheraea pernyi, UniProt A2SZ52); assay: N-acetyltransferase activity assay, recombinant enzyme; assay type: biochemical; conditions: optimal pH 8.0 printed for the enzyme, read-out: apparent Km
T3 construct: cDNA expressed in Sf9 cells by baculovirus
T3 sequence (A2SZ52 1-261): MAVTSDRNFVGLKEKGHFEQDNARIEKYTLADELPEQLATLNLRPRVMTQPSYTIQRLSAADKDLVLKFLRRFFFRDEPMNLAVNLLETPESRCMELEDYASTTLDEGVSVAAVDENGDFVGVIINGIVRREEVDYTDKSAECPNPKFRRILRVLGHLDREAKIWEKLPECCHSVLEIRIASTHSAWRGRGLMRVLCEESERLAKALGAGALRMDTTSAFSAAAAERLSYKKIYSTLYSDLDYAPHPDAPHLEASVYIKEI

Structure (SMILES) | Km (bNAT (basic aaNAT, NATb)) [µM] | Km [1] [µM] | Km [2] [µM] | Km ([2]; substrate inhibition above 0.03 mM with 0.11 mM acetyl CoA) [µM]
NCCc1ccc(O)cc1 [Tyramine] | 15.7 | 28.6 |  | 
CC(=O)SCCNC(=O)CCNC(=O)[C@H](O)C(C)(C)COP(=O)(O)OP(=O)(O)OC[C@H]1O[C@@H](n2cnc3c(N)ncnc32)[C@H](O)[C@@H]1OP(=O)(O)O [acetyl CoA] |  |  | 1.42 | 
NCCc1c[nH]c2ccc(O)cc12 [5HT] | 325 | 50 |  | 
NCCc1c[nH]c2ccccc12 [tryptamine] | 1330 | 25 |  | 3.31
COc1ccc2[nH]cc(CCN)c2c1 [Methoxy-TN] | 200 | 25 |  | 
NC[C@H](O)c1ccc(O)cc1 [Octopamine] | 385 | 20 |  | 
NCCc1ccc(O)c(O)c1 [Dopamine] | 1520 | 25 |  | 
NC[C@H](O)c1ccc(O)c(O)c1 [Norepinephrine] |  | 28.6 |  | 
